Reference: US12011475B2, “Polypeptide, polypeptide fragment, derivative thereof, and applications thereof” (CHENGDU HUITAI BIOMEDICINE CO., LTD., priority 2017, dated 2024)
Ends that are not written are not given here.

Legend:
Assay type in all cases: in vivo
[1] = tested on: rat with pulmonary fibrosis induced by bleomycin; assay: Lung coefficient, intratracheal instillation (Example 17); details: lung mass (mg)/body weight (g), 8 mg/kg peptide + 4 mg/kg bleomycin, Mean ± SEM
Method: (§1) The rats in Example 2 were weighed and sacrificed by anesthesia overdose. Lung tissue of both sides of the rats was taken, and the connective tissue around the lung tissue was carefully removed. After washing with saline and dried with a filter paper, the wet weight of the whole lung was weighted by an electronic balance. After the wet weight of the whole lung was weighted by the electronic balance, the lung coefficient was calculated according to the formula, lung coefficient=lung mass (mg)/body weight (g) (the result is shown in FIG. 1).
(§2) The rats in model group were intratracheally instilled with bleomycin (4 mg/kg); after anesthesia, the rats in treatment groups were intratracheally instilled with bleomycin (4 mg/kg) and corresponding therapeutic drug (8 mg/kg) simultaneously. The remaining implementation steps were the same as the description of Example 9.
The experimental rats of the control group, the model group and the treatment groups of Example 15 were taken to determine the lung coefficient. The implementation steps were the same as the description of Example 2.

[2] = tested on: rat with pulmonary fibrosis induced by bleomycin; assay: Hydroxyproline content in rat lung tissue, acid hydrolysis, intravenous injection (Example 25); details: intravenous injection 10 mg/kg once a day, 4th to 13th day after bleomycin 4 mg/kg; Mean ± SEM
Method: The rats were weighed before administration, intramuscularly injected with 65 mg/kg Zoletil anesthetic solution. After the rats entered the stage III anesthesia, the experimental rats were fixated in the lateral decubitus. Gavage needle size 12 was inserted into rat trachea through oral cavity along the glottis to instill sterile saline or bleomycin (4 mg/kg) (Day 0). After the anesthesia, the rats in control group were intratracheally instilled with an equal volume of sterile saline, and the rats in model group and treatment groups were intratracheally instilled with bleomycin (4 mg/kg). On the 4th day, the sterile saline or peptide drug was injected through the tail vein once a day until the 13th day. The rats were sacrificed on the 14th day for subsequent experiments. The rats in the control group were received no drug treatment; the rats in the model group were injected with sterile saline through the tail vein; the rats in the treatment groups were injected with corresponding peptide drug (10 mg/kg) through the tail vein. […]
The lung tissue in the model group, the control group and the treatment groups of Example 20 was taken, and the hydroxyproline content in lung tissue was detected using BioVision Hydroxyproline Acid Hydrolysis Assay Kit (Cat. No. K555-100), the result is shown in the HYP values in Table 4.

[3] = tested on: rat with pulmonary fibrosis induced by bleomycin; assay: Masson staining score, intratracheal instillation (Example 19); details: fibrosis pathology score, grade 0 to 8, 8 mg/kg peptide + 4 mg/kg bleomycin, Mean ± SEM
Text: (§3) The lung tissue of the rats of Example 9 was taken, fixed with 4% paraformaldehyde and embedded in paraffin. The wax block embedded the lung tissue was sectioned along the largest cross section. Pathological changes in lung tissue were observed using staining by Masson's trichrome stain (Masson). Pathological changes in lung tissue were observed under a light microscope (low magnification) at a magnification of 100 times (the result is shown in FIG. 15).
According to the Modified Ashcroft scale scoring method, the degree of pulmonary fibrosis was evaluated according to the range of lesions and could be divided into 0 to 8 grades.
as §2
The lung tissue of the control group, the model group and the treatment groups of Example 15 was taken and subjected to Masson staining and scoring. The specific implementation steps were the same as the description of Example 13.

[4] = tested on: rat with pulmonary fibrosis induced by bleomycin; assay: HE staining score, intratracheal instillation (Example 18); details: inflammatory pathology score, grade 0 to 3, 8 mg/kg peptide + 4 mg/kg bleomycin, Mean ± SEM
Text: as §3, with “2” for “9”, “hematoxylin-eosin (HE) staining.” for “staining by Masson's trichrome stain (Masson).”, “2).” for “15).”
According to the method provided by Szapie, et al., the degree of alveolitis was graded according to the range of lesions and could be divided into 0 to 3 grades, corresponding to 0 to 3 points. The evaluation indexes for the degree of alveolitis are as follows: grade 0, no alveolitis; grade 1, mild alveolitis, manifested as a slight increase in alveolar septum, infiltration of monocytes, near the pleura or localized, with a lesion range of less than 20% without alveolar structural damage; grade 2, moderate alveolitis, the lesion ranges from 20% to 50%, relatively severe near the pleura; grade 3, severe alveolitis, diffusely distributed, the lesion range is more than 50%, with pulmonary parenchymal lesion occasionally. […]

[5] = tested on: rat with pulmonary fibrosis induced by bleomycin; assay: Lung coefficient, intravenous injection (Example 22); details: lung mass (mg)/body weight (g); intravenous injection 10 mg/kg once a day, 4th to 13th day after bleomycin 4 mg/kg; Mean ± SEM
Method: as §1
The rats were weighed before administration, intramuscularly injected with 65 mg/kg Zoletil anesthetic solution. After the rats entered the stage III anesthesia, the experimental rats were fixated in the lateral decubitus. Gavage needle size 12 was inserted into rat trachea through oral cavity along the glottis to instill sterile saline or bleomycin (4 mg/kg) (Day 0). After the anesthesia, the rats in control group were intratracheally instilled with an equal volume of sterile saline, and the rats in model group and treatment groups were intratracheally instilled with bleomycin (4 mg/kg). […]
The experimental rats of the control group, the model group and the treatment groups of Example 20 were taken, the lung weight was measured and the lung coefficient was calculated. […]

In the case of YRVRFLAKENVTQDAEDN [N1], the “Lung Coefficient” value [1] was 8.49 ± 0.09, the “HYP (hydroxyproline content in lung tissue)” value [2] was 34.09 ± 5.01 and the “Masson Score” value [3] was 3.93 ± 0.09. For the same sequence, the “HE Score” value [4] was 2.45 ± 0.09 and the “Lung Coefficient” value [5] was 9.25 ± 0.28.
